Data reported in ChEMBL document CHEMBL1201862, “PubChem BioAssay data set” (2004).
Activity calls are given as the source filed them.

Key:
[1] = biological target: T1, Apoptotic protease-activating factor 1 (Homo sapiens, UniProt O14727); type: functional
T1 sequence (O14727 whole entry): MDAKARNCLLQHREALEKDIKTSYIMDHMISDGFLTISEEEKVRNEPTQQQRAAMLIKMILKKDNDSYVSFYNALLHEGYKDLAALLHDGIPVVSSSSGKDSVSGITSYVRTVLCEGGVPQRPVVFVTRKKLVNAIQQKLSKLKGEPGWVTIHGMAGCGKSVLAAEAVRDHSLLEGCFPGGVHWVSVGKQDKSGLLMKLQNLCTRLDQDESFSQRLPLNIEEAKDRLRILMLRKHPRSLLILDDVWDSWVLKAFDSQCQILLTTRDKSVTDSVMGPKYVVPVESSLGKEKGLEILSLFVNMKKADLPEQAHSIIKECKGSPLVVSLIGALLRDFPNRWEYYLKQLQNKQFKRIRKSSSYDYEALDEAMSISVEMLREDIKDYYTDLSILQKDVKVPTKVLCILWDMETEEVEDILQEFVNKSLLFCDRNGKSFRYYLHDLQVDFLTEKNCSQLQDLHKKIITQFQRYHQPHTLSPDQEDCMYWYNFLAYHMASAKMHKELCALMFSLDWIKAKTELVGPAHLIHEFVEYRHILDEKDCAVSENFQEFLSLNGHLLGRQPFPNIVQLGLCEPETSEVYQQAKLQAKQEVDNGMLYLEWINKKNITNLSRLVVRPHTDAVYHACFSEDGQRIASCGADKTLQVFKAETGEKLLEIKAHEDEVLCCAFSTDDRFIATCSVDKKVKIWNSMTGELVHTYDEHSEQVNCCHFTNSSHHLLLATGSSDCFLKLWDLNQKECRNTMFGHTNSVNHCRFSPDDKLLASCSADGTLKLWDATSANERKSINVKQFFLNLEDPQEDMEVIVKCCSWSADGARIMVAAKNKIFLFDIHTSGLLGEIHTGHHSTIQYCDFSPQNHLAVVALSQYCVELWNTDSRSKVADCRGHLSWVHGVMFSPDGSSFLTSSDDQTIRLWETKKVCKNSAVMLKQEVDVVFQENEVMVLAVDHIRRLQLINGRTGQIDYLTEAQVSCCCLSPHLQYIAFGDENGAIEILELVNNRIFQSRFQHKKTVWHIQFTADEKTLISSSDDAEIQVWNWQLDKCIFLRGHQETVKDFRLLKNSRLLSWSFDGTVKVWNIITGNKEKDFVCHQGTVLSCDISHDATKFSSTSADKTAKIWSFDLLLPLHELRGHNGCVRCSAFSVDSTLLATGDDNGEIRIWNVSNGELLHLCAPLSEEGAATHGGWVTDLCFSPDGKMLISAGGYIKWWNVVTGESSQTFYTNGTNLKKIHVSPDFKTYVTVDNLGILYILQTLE

[2] = biological target: T2, Sentrin-specific protease 7 (Homo sapiens, UniProt Q9BQF6); type: functional;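 note: Luminescence-based dose-response confirmation of ultra-high-throughput screening hits, measuring inhibition of SENP7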
T2 sequence (Q9BQF6 whole entry): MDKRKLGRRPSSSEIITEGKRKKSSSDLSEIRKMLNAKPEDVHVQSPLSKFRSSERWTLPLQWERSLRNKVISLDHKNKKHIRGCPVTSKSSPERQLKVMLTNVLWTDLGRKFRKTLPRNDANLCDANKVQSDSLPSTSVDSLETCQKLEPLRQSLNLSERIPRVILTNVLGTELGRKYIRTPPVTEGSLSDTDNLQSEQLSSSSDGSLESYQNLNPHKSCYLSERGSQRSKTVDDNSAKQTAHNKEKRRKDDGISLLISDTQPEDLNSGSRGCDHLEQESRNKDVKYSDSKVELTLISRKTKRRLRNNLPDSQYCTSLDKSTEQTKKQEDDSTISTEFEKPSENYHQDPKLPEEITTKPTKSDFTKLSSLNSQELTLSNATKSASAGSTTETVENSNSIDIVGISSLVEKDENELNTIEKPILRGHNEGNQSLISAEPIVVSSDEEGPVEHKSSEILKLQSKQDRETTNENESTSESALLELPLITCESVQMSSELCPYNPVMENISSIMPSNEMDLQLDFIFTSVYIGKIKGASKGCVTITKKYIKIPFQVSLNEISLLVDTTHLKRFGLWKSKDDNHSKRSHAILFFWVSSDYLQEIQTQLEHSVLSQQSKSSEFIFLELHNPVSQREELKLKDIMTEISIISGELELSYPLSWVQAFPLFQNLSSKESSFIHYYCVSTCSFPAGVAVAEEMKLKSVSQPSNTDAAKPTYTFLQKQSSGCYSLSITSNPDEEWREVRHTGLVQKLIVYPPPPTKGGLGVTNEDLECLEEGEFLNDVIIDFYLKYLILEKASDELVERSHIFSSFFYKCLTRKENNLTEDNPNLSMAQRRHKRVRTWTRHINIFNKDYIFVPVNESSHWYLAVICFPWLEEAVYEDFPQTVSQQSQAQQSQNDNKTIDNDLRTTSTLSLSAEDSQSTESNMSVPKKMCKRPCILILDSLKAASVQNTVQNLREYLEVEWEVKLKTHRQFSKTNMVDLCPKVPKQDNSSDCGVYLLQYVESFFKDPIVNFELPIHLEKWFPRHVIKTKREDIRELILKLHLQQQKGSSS

[3] = biological target: T3, Sentrin-specific protease 8 (Homo sapiens, UniProt Q96LD8); type: functional;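 note: luminescence read-out of SENP8 inhibition, dose-response confirmation following an ultra-high-throughput screen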
T3 sequence (Q96LD8 whole entry): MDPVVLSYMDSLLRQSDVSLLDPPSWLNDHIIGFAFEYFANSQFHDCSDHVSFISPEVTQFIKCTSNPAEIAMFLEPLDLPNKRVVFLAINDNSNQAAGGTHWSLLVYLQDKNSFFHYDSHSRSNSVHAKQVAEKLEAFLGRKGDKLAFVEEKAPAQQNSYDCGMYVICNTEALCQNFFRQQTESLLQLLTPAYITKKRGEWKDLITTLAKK

[4] = biological target: T4, Sentrin-specific protease 6 (Homo sapiens, UniProt Q9GZR1); type: functional;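 note: Luminescence-based dose-response confirmatory assay of SENP6 inhibition, following up an ultra-high-throughput screen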
T4 sequence (Q9GZR1 whole entry): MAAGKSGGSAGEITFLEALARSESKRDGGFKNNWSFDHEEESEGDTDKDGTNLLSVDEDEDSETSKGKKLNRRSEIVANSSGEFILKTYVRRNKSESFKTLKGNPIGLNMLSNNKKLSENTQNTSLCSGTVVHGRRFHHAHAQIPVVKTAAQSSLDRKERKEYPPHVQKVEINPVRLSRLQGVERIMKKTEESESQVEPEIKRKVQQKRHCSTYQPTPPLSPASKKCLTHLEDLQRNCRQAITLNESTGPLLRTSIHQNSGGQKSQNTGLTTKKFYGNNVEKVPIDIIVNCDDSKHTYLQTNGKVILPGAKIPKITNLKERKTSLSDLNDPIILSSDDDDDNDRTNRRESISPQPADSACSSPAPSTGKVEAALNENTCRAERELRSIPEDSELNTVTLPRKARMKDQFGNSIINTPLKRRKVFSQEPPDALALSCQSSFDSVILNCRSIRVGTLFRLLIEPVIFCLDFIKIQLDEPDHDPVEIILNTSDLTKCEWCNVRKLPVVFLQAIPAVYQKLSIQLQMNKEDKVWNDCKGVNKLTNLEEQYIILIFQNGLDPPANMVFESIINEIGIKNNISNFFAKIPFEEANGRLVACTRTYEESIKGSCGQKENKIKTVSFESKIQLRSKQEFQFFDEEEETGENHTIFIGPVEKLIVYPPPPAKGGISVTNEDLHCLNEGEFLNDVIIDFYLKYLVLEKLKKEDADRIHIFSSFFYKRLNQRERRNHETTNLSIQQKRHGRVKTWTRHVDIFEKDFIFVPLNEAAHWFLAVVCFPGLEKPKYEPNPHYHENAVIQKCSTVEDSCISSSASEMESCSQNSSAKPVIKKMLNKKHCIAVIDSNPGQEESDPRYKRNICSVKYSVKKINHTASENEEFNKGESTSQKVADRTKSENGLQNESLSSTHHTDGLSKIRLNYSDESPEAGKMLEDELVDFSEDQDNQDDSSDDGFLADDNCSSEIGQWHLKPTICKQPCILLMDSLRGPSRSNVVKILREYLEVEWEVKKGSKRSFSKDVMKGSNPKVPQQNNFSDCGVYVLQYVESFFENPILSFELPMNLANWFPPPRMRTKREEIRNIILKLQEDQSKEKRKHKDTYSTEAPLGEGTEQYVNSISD

Caspase-3 = biological target: T5, Caspase-3 (Homo sapiens, UniProt P42574); type: functional;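 note: Dose-response selectivity test against caspase-3 for candidate inhibitors of sentrin-specific proteases (SENPs)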
T5 sequence (P42574 whole entry): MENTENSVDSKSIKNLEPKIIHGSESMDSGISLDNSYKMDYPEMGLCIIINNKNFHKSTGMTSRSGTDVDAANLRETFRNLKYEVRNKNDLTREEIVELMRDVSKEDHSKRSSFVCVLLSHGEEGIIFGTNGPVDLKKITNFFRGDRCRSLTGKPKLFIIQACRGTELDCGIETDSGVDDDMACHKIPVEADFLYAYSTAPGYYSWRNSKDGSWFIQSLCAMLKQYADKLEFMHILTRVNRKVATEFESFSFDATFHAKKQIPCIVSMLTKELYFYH

[5] = general cell-killing toxicity readout – plate reader, dry powder samples, cytotoxicity control for PAX8 inhibitor project, dose response (AID 743021); type: functional, cell-based
Paired box protein Pax-8 = Paired box protein Pax-8 (Homo sapiens, UniProt Q06710); test: PAX8 transcriptional activity inhibition in RMG-I – RMG-I cells, luciferase, cherry-pick, dose response (AID 687027); type: functional, cell-based;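 note: luciferase reporter driven by Pax8 target thyroperoxidase promoter measured by SteadyGlo luminescence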
[6] = biological target: Peroxisome proliferator-activated receptor gamma/Nuclear receptor coactivator 1 (Homo sapiens, UniProt P37231); test: TR-FRET dose response biochemical High Throughput Screening assay for agonists of the steroid receptor coactivator 1 (SRC-1) recruitment by the peroxisome proliferator-activated receptor gamma (PPAR gamma): non-selective agonists. [Related pubchem assays (depositor defined):AID1300, AID1808, AID504735, AID631]; type: protein assay
[7] = biological target: Peroxisome proliferator-activated receptor gamma/Nuclear receptor coactivator 2 (Homo sapiens, UniProt P37231); test: (§1) TR-FRET dose response biochemical High Throughput Screening assay for agonists of the steroid receptor coactivator 2 (SRC-2) recruitment by the peroxisome proliferator-activated receptor gamma (PPAR gamma): non-selective agonists. [Related pubchem assays: 1297, 1032 ]; type: functional
[8] = biological target: Peroxisome proliferator-activated receptor gamma/Nuclear receptor coactivator 3 (Homo sapiens, UniProt P37231); test: as §1, with “3 (SRC-3)” for “2 (SRC-2)”, “1301 (Confirmation screen.), 1048 (Primary screen.)]” for “1297, 1032 ]”; type: functional
Major prion protein = Major prion protein (Homo sapiens, UniProt P04156); type: functional, cell-based
[9] = blockers of HIV-1 envelope-mediated cell-cell fusion – cherry-pick, dose response (AID 652057); type: functional, cell-based
[10] = blockers of HIV-1 ZM109 envelope-driven cell-cell fusion – HeLa effector, CEM target cells, luciferase, cherry-pick, dose response (AID 652058); type: functional, cell-based;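 note: luciferase signal from HIV-1 Env mediated cell-cell fusion of effector and target cells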
[11] = HIV-1 AD8 envelope cell-cell fusion blockers – cherry-pick, dose response (AID 652062); type: functional, cell-based;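 note: luciferase signal from cell-cell fusion driven by HIV-1 clade B AD8 Env; potency is for inhibitors of fusion seen as a drop in luminescence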
[12] = off-target signal loss in HeLa-CEM21 co-culture – HeLa F-luc CTL cells, cherry-picked, counter-screen for HIV-1 Env fusion inhibitor project, dose response (AID 652040); type: functional, cell-based;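 note: potency for signal decrease marking cytotoxic or nonspecific inhibition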

Clc1ccccc1OCc1nn2c(-c3ccncc3)nnc2s1
IC50 [1]: 8.4 µM (active)

CC(C)OCCCNC1=C(Cl)C(=O)c2ccccc2C1=O
IC50 [2]: 19.4 µM (active)
IC50 [3]: 25.7 µM (active)
IC50 [4]: 8.48 µM (active)
IC50 (Caspase-3): 6.38 µM (active)

COC(=O)C1=C(C)N(Cc2ccc(C(F)(F)F)cc2)C(NCc2ccccc2)=NC1c1cccc(Cl)c1 (centres undefined)
AC50 [5]: 20.9 µM (active)
AC50 (Paired box protein Pax-8): 12.3 µM (active)

CCCCNC(=O)CSc1nc(CCC)nc2ccccc12
EC50 [6]: > 79.4 µM (inactive)
IC50 (cells): > 138 µM (inactive)
EC50 [7]: > 79.4 µM (not active)
EC50 [8]: > 79.4 µM (not active)
IC50 (Major prion protein): 14.7 µM (inactive)

COc1ccc(Oc2ccc(/C=C/C(=O)c3cccc(OC)c3)cc2[N+](=O)[O-])cc1
AC50 [5]: 54.3 µM (active)
AC50 (Paired box protein Pax-8): 14.5 µM (active)

O=C(O)c1ccc(NC2=C(N3CCOCC3)C(=O)c3ccccc3C2=O)cc1
IC50 [1]: 35.8 µM (active)

CC(C)CCN(C(=O)c1csnn1)C(C(=O)NC1CCCC1)c1ccc(F)cc1 (centres undefined)
AC50 [9]: 4.72 µM (active)
AC50 [10]: 7.51 µM (active)
AC50 [11]: 5.93 µM (active)
AC50 [12]: 5.56 µM (active)

COc1cccc(N(C(=O)c2ccco2)c2nc(-c3sc(NC(=O)c4ccco4)nc3C)cs2)c1
AC50 [5]: 62 µM (active)
AC50 (Paired box protein Pax-8): 2.1 µM (active)

COc1cc(CNCc2ccc(OC)c3ccccc23)cc(OC)c1OC
AC50 [9]: 23.8 µM (active)
AC50 [10]: 31.8 µM (active)
AC50 [11]: 51 µM (active)
AC50 [12]: > 70 µM (inactive)

CCOC(=O)c1cc(-c2cc3ccccc3o2)[nH]n1
IC50 [2]: 5.55 µM (active)
IC50 [3]: 34.8 µM (active)
IC50 [4]: 21.6 µM (active)
IC50 (Caspase-3): 15.4 µM (active)
